Assay: Degradation studies with human plasma (20% human serum)
Assay type: in vitro ADME
Settings: 20% human serum (from human male AB plasma) in water, 37 °C, glycopeptide 0.5 mg·mL-1, sampled every hour, UPLC-micrOTOF-Q
Excerpt: We examined then the stability of the unnatural MUC1 derivative in human plasma. To this end, we synthesized glycopeptides APDThr(α-D-GalNAc)RP and APDMeSer(α-D-GalNAc)RP (ESI ^†). The degradation of the glycopeptide containing threonine was faster (around 1.8-fold) compared to the unnatural compound. […]
an r−6 averaging. The equilibrium distance range was set to rexp − 0.2 Å ≤ rexp ≤ rexp + 0.2 Å.
Trajectories were run at 298 K, with a decay constant of 2000 ps and a time step of 1 fs.
The force constants rk2 and rk3 used in each case were 10 kcal·mol−1·Å−2. The overall simulation length for the simulations was 20 ns. The coordinates were saved each 1 ps, thus, obtaining MD trajectories of 20000 frames each. A convergence within the equilibrium distance range was obtained in the simulations. The analysis of the MD-tar trajectories has been carried out with the cpptraj modules of AMBER 12.
Degradation studies with human plasma.
Commercially available serum from human male AB plasma was used. […] Degradation of the peptides was determined every hour by using UPLC-micrOTOF-Q (column: ACQUITY UPLC BEH C18 1,7; diameter: 2.1 mm and length: 100 mm), eluting a mixture of 5 µL of the glycopeptide-serum solution in 795 µL of water and employing an isocratic method (70% H2O, 30% acetonitrile, temperature: […]

For `CC(=O)N[C@H]1[C@@H](O[C@H](C)[C@H](NC(=O)[C@H](CC(=O)O)NC(=O)[C@@H]2CCCN2C(=O)[C@H](C)N)C(=O)N[C@@H](CCCNC(=N)N)C(=O)N2CCC[C@H]2C(N)=O)O[C@H](CO)[C@H](O)[C@@H]1O` [APDThr(α-D-GalNAc)RP], the “degradation, faster compared to the unnatural compound APDMeSer(α-D-GalNAc)RP” value was “around 1.8 fold”.

Reference: paper PMC5977504, “Mucin architecture behind the immune response: design, evaluation and conformational analysis of an antitumor vaccine derived from an unnatural MUC1 fragment” (Chemical Science, 2015)
